{"source": "patent US20020137781A1", "about": "“Preparation and use of enantiomer-pure 2,4-disubstituted oxazolines” (priority 1999, published 2002)", "tested_on": "Dermanyssus gallinae", "assay": "Comparative in vitro effect on Dermanyssus gallinae", "conditions": "for Type of activity: at the EC100 of the same table line; for EC100 (minimum dosage to reach 100% mortality): fed adult female mites, evaluated after 5 days", "protocol": "15 fed adult female mites of the genus Dermanyssus gallinae fixed on a plastic adhesive film are brought into contact with 50 μl of an aqueous suspension or emulsion of the test substance. The test is carried out with concentrations of 32, 10, 3.2, 1.0, 0.32 to 0.1 ppm. After drying, the film is stuck onto a glass disc. This creates a kind of air bubble around each mite, the lower surface of which is formed by the glass disc and the upper surface by a bulging of the adhesive film. This bubble contains sufficient air for the mite to avoid suffocating. After 5 days, the effect of the test substance is evaluated with the aid of a stereo-microscope by assessing the effect on mortality, egg deposition, egg quality, hatching rate, pupation rate, and development of protonymphs according to the following 4 criteria:\n1. if 9 to 10 mites are dead, this indicates a lethal effect (M);\n3. if 2 or more mites survive and produce eggs, but no larvae hatch from these eggs and no protonymphs develop, this indicates a development-inhibiting effect (H);\n4. if 2 or more mites survive and lay the usual number of normal eggs, from which larvae hatch and develop into protonymphs, this indicates no activity.", "note": "“And” between values parts separate entries of the source, which are not always exact repeats. Identical values can stand only once."}
{"smiles": "Fc1cccc(F)c1C1=NC(c2ccc(-c3ccc(C(F)(F)F)cc3)cc2)CO1", "note": "(racemic) [Racemate, 2-(2,6-difluorophenyl)-4-(4′-trifluoromethylbiphenyl-4-yl)-4,5-dihydrooxazole, reference compound]", "values": [{"measurement": "concentration that completely inhibits the development of protonymphs", "setting": "after 5 days", "result": "≥ 0.02", "unit": "ppm"}, {"measurement": "type of effect (points 1-4)", "setting": "after 5 days", "result": 1}, {"measurement": "Type of activity", "result": 1}, {"measurement": "EC100 (minimum dosage to reach 100% mortality)", "result": 0.2, "unit": "ppm"}]}
{"smiles": "Fc1cccc(F)c1C1=NC(c2ccc(-c3ccc(C(F)(F)F)cc3)cc2)CO1", "note": "(single isomer, unassigned) [1.2, 2-(2,6-difluoro-phenyl)-4-(4′-trifluoromethylbiphenyl-4-yl)-4,5-dihydro-oxazole]", "values": [{"measurement": "concentration to reach an activity of type 1", "setting": "activity of type 1", "result": "at least 32 ppm"}, {"measurement": "concentration to reach a considerable efficacy (only activity of type 3)", "setting": "activity of type 3", "result": "at least 20 ppm"}, {"measurement": "Type of activity", "setting": "listed as Enantiomer B", "result": "3) and 1"}, {"measurement": "type of effect (points 1-4) at concentrations up to 10 ppm", "setting": "concentrations up to 10 ppm", "result": 4}, {"measurement": "EC100 (minimum dosage to reach 100% mortality)", "setting": "listed as Enantiomer B", "result": "20.0 ppm and 32.0 ppm"}]}
